Source: publication PMC3669315, “Dissociations in the Effects of β2-Adrenergic Receptor Agonists on cAMP Formation and Superoxide Production in Human Neutrophils: Support for the Concept of Functional Selectivity” (PLoS ONE, 2013)
Where two headings read alike, the source gives them in different places.

Columns and labels:
[1] = target: T1, β2-adrenergic receptor (β2AR) on human neutrophils (Homo sapiens, UniProt P07550); experiment: cAMP accumulation, HPLC-MS/MS; assay type: cell-based; conditions: read-out: cAMP assay (β2AR on neutrophil granulocytes) / pEC50 ± S.E.M. (EC50 in μM) (converted), intact neutrophils, […] IBMX, […] °C
T1 construct: gene ADRB2; native full-length receptor in intact neutrophils isolated from venous blood or buffy coat of healthy volunteers

[2] = target: T1, β2-adrenergic receptor (β2AR) on human neutrophils; experiment: inhibition of fMLP-stimulated superoxide production, ferricytochrome c reduction; assay type: cell-based; conditions: agonist potency, downstream functional read-out, intact neutrophils, […] fMLP, cytochalasin B, read-out: O2 ^•- assay (β2AR on neutrophil granulocytes) / pIC50 ± S.E.M. (IC50 in μM) (converted)
Description: inhibition of fMLP-stimulated superoxide production, ferricytochrome c reduction on β2-adrenergic receptor (β2AR) on human neutrophils

T1 sequence (P07550 whole entry): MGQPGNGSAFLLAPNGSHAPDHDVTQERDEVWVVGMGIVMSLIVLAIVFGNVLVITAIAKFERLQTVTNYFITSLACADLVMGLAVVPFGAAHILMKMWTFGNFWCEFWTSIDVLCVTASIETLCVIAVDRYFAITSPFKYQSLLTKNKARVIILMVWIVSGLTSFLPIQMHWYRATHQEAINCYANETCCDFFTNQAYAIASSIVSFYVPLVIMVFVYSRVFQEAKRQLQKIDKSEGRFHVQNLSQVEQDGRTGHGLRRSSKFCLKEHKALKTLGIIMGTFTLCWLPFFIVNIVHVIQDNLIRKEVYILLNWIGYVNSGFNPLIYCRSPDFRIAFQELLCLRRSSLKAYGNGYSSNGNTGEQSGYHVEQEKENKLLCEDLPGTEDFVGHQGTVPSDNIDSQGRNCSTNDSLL

Structure (SMILES) | EC50 ([1]; agonist mode, table prints pEC50 <[…] as ( […]), text: no agonistic activity up to […]) [µM] | IC50 [2] [µM] | EC50 ([1]; partial agonist) [µM]
CC(C)NCC(O)c1ccc(Cl)c(Cl)c1 (racemic) [DCI, (±)-dichlorisoproterenol] | > 100 | 39.8 | –
CC(CCc1ccc(O)cc1)NCCc1ccc(O)c(O)c1 (racemic) [DOB, (±)-dobutamine] | – | – | 13.8
